The source of these data is patent publication US20250041292A1, “METHODS FOR TREATING PRIMARY IMMUNODEFICIENCY” (X4 Pharmaceuticals, Inc., priority 2021, published 2025).

In data set [1] the test system is peripheral WBC counts and subsets. Kind of data set: Phase 1b trial of mavorixafor in combination with ibrutinib in Waldenstrom's macroglobulinemia: peripheral WBC counts. In kind it is in vivo, human. As to conditions: WM, interim analysis.
Data set [2] has the same test system. Briefly: Long-term extension of phase 2 trial of mavorixafor in WHIM syndrome: WBC counts and infection rate. The note with it: WHIM syndrome phase 2 extension.
Data set [3] shares this test system. Briefly: Phase 1b trial of mavorixafor in combination with nivolumab in metastatic ccRCC: peripheral WBC counts. In kind it is in vivo, human.
The test system is the same in data set [4]. Briefly: Phase 1/2 trial of mavorixafor in combination with axitinib in advanced ccRCC: peripheral WBC counts. In kind it is in vivo, human. The note with it: mavorixafor 400 mg QD + axitinib.
The subject of a further data set is CVID B cells. Briefly: Chemotaxis assay: PBMCs from a patient with CVID due to NFKB1 mutation. The class given is cell-based, human. As for the experimental part:
PBMCs from patients or healthy donors were resuspended in chemotaxis buffer (RPMI 1640 media containing 20 mM HEPES, L-glutamine, and 0.5% BSA) at 2.0×10^6 cells/mL. […] Chemotaxis was assayed immediately after treatment with drug by placing 1.0×10^5 cells in 100 μL in the upper chamber of a Transwell 24-well plate separated by a 6.5 mm insert with 3 μm pores (Corning Life Sciences, Corning, NY, USA) from the lower chamber containing 600 μL of buffer with the indicated concentration of CXCL12. After incubation for 2.5 hours at 37° C. in a 5% CO2 incubator, the cells that migrated into the lower chamber were collected by centrifugation and resuspended in the assay buffer. Cells were blocked using Human TruStain FcX (BioLegend, Inc) for 10 minutes at RT, and subsequently B lymphocyte subtyping was performed (Alexa Fluor® 488 Mouse anti-human CD19 IgG1, κ, HIB19, BioLegend, Cat #302219). A fixed number of flow cytometry counting beads (Precision Count Beads; BioLegend) were added to each sample.
Both migrated cells and counting beads were counted by flow cytometry (CytoFLEX). Data were analyzed using FCS Express software, and the total number of migrated cells was calculated, according to the counted and total number of beads present in the sample. Results are presented as percentage of migrated B cells out of the total number of B cells placed in the chemotaxis chamber.

The subject of data set [5] is circulating white blood cells. As to conditions: 400-mg single-dose subject; cited from earlier work.
The subject of a further data set is WHIM mice. As to conditions: gavaged daily 100 mg/kg for 1 or 3 weeks; cited from earlier work.
For data set [6] the following is noted: mouse, in vivo; cited from earlier work.
Where [7] appears, read: after 6 months' (n=5) treatment.
Setting [8] is: compared to screening values, after 4 weeks (n=8).
The mark [9] stands for this setting: mavorixafor 300 or 400 mg QD, after 6 months' (n=5) treatment.
Where [10] appears, read: after 6 months' treatment (n=20).

Entries after “also recorded” stand apart in the source; their conditions may differ.

mavorixafor: the ALC in data set [1] (setting [7]) is on record as 106 % of baseline; in data set [1] (setting [8]), 219 % of baseline; in data set [2] (setting [9]), 239 % of baseline; in data set [3] (after 4 weeks (n=9)), 141 % of baseline; in data set [3] (after 6 months (n=2)), 152 % of baseline; in data set [4] (after 4 weeks (n=49)), 143 % of baseline. Also, the ALC in data set [4] (setting [10]) is given as 139 % of baseline. For the same compound, the AMC in data set [1] (setting [7]) was 172 % of baseline; in data set [1] (setting [8]), 186 % of baseline; in data set [2] (setting [9]), 486 % of baseline; in data set [3] (after 4 weeks (n=9)), 179 % of baseline; in data set [3] (after 6 months (n=2)), 191 % of baseline; in data set [4] (after 4 weeks (n=49)) it was 182 % of baseline. Also, the AMC in data set [4] (setting [10]) is 166 % of baseline. For the same compound, the ANC in data set [1] (setting [7]) is 192 % of baseline; in data set [1] (setting [8]), 170 % of baseline; in data set [2] (setting [9]), 652 % of baseline; in data set [3] (after 4 weeks (n=9)), 143 % of baseline; in data set [3] (after 6 months (n=2)) it was 136 % of baseline; in data set [4] (after 4 weeks (n=49)), 158 % of baseline. Moreover, the ANC in data set [4] (setting [10]) is listed as 171 % of baseline. Moreover, the “total WBC count” value is 163 % of baseline in data set [1] (setting [7]); 192 % of baseline in data set [1] (setting [8]); 339 % of baseline in data set [2] (setting [9]); 146 % of baseline in data set [3] (after 4 weeks (n=9)); 147 % of baseline in data set [3] (after 6 months (n=2)); 153 % of baseline in data set [4] (after 4 weeks (n=49)). Also, the “total WBC count” value in data set [4] (setting [10]) is recorded as 159 % of baseline. The annualized infection rate in data set [2] (after 40 months, baseline 5.6 (SD±3.13) events) is given as 2.2 (SD±0.93) events. Besides, the “mavorixafor concentration effectively neutralizing the chemotaxis” value with CVID B cells (CVID B cells cultured with 10 nm CXCL12, FIG. 1C) worked out at 0.1 µM. Further, the “effect on enhanced chemotaxis toward CXCL12” value in the data set with CVID B cells (CVID patient B cells, FIG. 1C) is given as “dose-dependent normalization effect on chemotaxis; also recorded: normalizes enhanced chemotaxis”. The “increase in the number of circulating white blood cells (Leukocytosis)” value in data set [5] was 2.9 fold above baseline.

As to `Cc1cccnc1[C@@H]1CCC[C@H](c2nc3cccc(N4CCN(C)CC4)n3c2CO)N1C`, the “IL-7 production and B cell development” value in the data set on WHIM mice is “restored IL-7 production and B cell development”. In data set [6], the oral bioavailability result is on record as “orally bioavailable”.
